# Values of other authors as cited in patent EP1988398B1, “Immunoassay for tramadol and its major metabolites” (Randox Laboratories Ltd., priority 2007, dated 2008).
# Structures can show the parent of a compound that is named as a salt.
# [1] = oral administration of a single 100 mg dose
structure (smiles),measurement,setting,value
"CNC[C@@H]1CCCC[C@@]1(O)c1cccc(OC)c1 (racemic) [N-demethyltramadol, (±)-cis-2-[(methylamino)methyl]-1-(3-methoxyphenyl)cyclohexanol]",abundance of N-demethyltramadol relative to O-demethyltramadol,normal tramadol dosage levels,1.5-3 times
"COc1cccc(C2(O)CCCCC2CN(C)C)c1 (racemic) [Tramadol, (±)-cis-2-[(dimethylamino)methyl]-1-(3-methoxyphenyl)cyclohexanol hydrochloride]",plasma concentration of tramadol peaks,[1],approximately 600 ng/ml
same,time of peak plasma concentration,[1],2 to 3 h
same,Urinary excretion of the dose as metabolites,"oral, single 100 mg dose",60%
same,Urinary excretion of the dose as the unchanged drug,"oral, single 100 mg dose",30%
